ChEMBL document CHEMBL1152171 (Bioorg Med Chem Lett, 2008)
pKi: −log10 of the molar value.

Target: Synaptic vesicular amine transporter (Rattus norvegicus, UniProt Q01827)
Assay: Displacement of [3H]dihydrotetrabenazine from vesicular monoamine transporter-2 in rat brain synaptosome
Assay type: tissue-based

Synaptic vesicular amine transporter, sequence (Q01827 whole entry): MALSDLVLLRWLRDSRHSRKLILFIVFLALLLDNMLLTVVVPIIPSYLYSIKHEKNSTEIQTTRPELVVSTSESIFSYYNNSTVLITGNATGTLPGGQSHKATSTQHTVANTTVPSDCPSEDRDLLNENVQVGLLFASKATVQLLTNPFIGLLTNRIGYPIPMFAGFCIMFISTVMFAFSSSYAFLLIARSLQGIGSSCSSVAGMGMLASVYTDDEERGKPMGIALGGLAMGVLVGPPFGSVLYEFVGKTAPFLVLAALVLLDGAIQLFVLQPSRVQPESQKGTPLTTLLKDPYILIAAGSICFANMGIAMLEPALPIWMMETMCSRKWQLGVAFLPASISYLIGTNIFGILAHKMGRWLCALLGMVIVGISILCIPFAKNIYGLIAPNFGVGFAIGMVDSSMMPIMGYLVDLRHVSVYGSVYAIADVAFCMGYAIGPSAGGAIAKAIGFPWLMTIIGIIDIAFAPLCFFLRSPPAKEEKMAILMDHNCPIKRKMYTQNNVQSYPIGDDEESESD

Structure (SMILES) | pKi
CN1[C@@H](c2ccccc2)CCC[C@H]1c1ccccc1 | < 4.00
CN1[C@H](CCCc2ccccc2)CCC[C@@H]1CCCc1ccccc1 | 6.00
CN1[C@@H](CCCc2ccccc2)CCC[C@H]1c1ccccc1 | 4.20
CN1[C@@H](CCCc2ccccc2)CCC[C@H]1CCc1ccccc1 | 6.06
c1ccc(C[C@H]2CCC[C@@H](Cc3ccccc3)N2)cc1 | 5.11
CN1[C@@H](Cc2ccccc2)CCC[C@H]1Cc1ccccc1 | 4.98
c1ccc(CC[C@H]2CCC[C@@H](Cc3ccccc3)N2)cc1 | 4.91
c1ccc(CCC[C@H]2CCC[C@@H](CCc3ccccc3)N2)cc1 | 5.34
c1ccc(C[C@H]2CCC[C@@H](c3ccccc3)N2)cc1 | 4.62
CN1[C@@H](CCCc2ccccc2)CCC[C@H]1Cc1ccccc1 | 5.79
c1ccc(CCC[C@H]2CCC[C@@H](c3ccccc3)N2)cc1 | 4.54
c1ccc(CCC[C@@H]2CCC[C@H](CCCc3ccccc3)N2)cc1 | 5.34
c1ccc(CCC[C@H]2CCC[C@@H](Cc3ccccc3)N2)cc1 | 5.95
c1ccc(CC[C@H]2CCC[C@@H](c3ccccc3)N2)cc1 | 4.55
CN1[C@@H](CCc2ccccc2)CCC[C@H]1Cc1ccccc1 | 5.56
CN1[C@@H](Cc2ccccc2)CCC[C@H]1c1ccccc1 | 4.87
